Experimental data: US20070004653A1, “Stable lyophilized anthracycline glycosides” (priority 2005, published 2007)

Tests used:
[1] = Stability tests of lyophilized Idarubicin HCl, not stabilized and stabilized: pH, aglycone, bis-anhydro before and after lyophilization; format: physicochemical
Experimental: Starting product was idarubicin hydrochloride, 1% w/v in water, containing amount of free HCl. No additional chemicals were added. Most of the solution was frozen and lyophilized. […]
To obtain idarubicin hydrochloride containing a trace amount of free HCl, idarubicin HCl was slurried in 20 volumes of a mixture of dichloromethane:methanol (90:10) containing a 1% molar amount of HCl with respect to the molar amount of idarubicin hydrochloride. The slurry was filtered off and washed with the same solvent mixture and then dried under vacuum at room temperature, until constant weight.
Starting product was idarubicin hydrochloride: 1% w/v in water, containing a trace amount of free HCl. 1.5% mol of both NH4OAc and AcOH with respect to idarubicin hydrochloride were added. Most of the solution was frozen and lyophilized. […]
Starting product was idarubicin hydrochloride, 1% w/v in water, containing a trace amount of free HCl. The solution was first decolorized with charcoal and 1.5% mol of both NH4OAc and AcOH with respect to idarubicin hydrochloride were added. Most of the solution was frozen and lyophilized. […]
Starting product was idarubicin hydrochloride, 1% w/v in water, containing a trace amount of free HCl. 0.65% mol of both NH4OAc and AcOH (0.1% and 0.08% w/w, respectively) with respect to idarubicin hydrochloride were added. Most of the solution was frozen and lyophilized. […]
Starting product was idarubicin hydrochloride, 1% w/v in water, containing a trace amount of free HCl. 0.1% w/w of NH4HCO3 and gaseous CO2 were added. Most of the solution was frozen and lyophilized. […]
Starting product was idarubicin hydrochloride, 1% w/v in water, containing a trace amount of free HCl. 0.1% w/w of NaHCO3 and gaseous CO2 were added. Most of the solution was frozen and lyophilized. […]
Starting product was idarubicin hydrochloride, 1% w/v in water, containing a trace amount of free HCl. 1.0% molar amount of AMBERLITE® IRA-67 (1.6 M) acetate and 0.8% molar amount of acetic acid with respect to idarubicin hydrochloride were added. The solution was filtered through a 0.4 micron membrane then it was frozen and lyophilized.

[2] = Preparation of stable lyophilized anthracycline glycoside hydrochlorides: aglycone and dimer in the lyophilized product; format: physicochemical; conditions: frozen and lyophilized
Experimental: Idarubicin hydrochloride (500 mg) was dissolved in water (50 ml) and acetic acid and ammonium acetate (both 1.5% molar amount with respect to the molar amount of idarubicin hydrochloride) were added. The solution was frozen and lyophilized.
Idarubicin hydrochloride (500 mg) was dissolved in water (50 ml) and acetic acid and ammonium acetate (both 1.5% molar amount with respect to the molar amount of idarubicin hydrochloride) were added. Charcoal was then added (100 g) and the solution was stirred for two hours. After that, the suspension was filtered through 0.4 micron membrane and then the solution was frozen and lyophilized.
Doxorubicin hydrochloride (500 mg) was dissolved in water (20 ml) and the pH corrected to 3.5 with acetic acid at room temperature. The solution was then warmed to 60° C. for 2 hours and then ammonium acetate (1.5% molar amount with respect to the molar amount of doxorubicin hydrochloride) was added. Then the solution was quickly frozen and lyophilized.
Epirubicin hydrochloride (1550 mg) was dissolved in water (100 ml) and the pH corrected to 3.2-3.8 with hydrochloric acid at room temperature. The solution was then warmed to 60° C.-65° C. for 1 hours and then the solution was cooled to 50-60° C. At the same time, the pH was corrected to 4.5-5.0 with sodium hydroxide. Then the solution was quickly frozen and lyophilized.
Idarubicin hydrochloride (5.0 g) was dissolved in water (500 ml). Then 58 microlitres of AMBERLITE® IRA-67 (1.6M) acetate (meaning 1.0% molar amount with respect to the molar amount of idarubicin hydrochloride) and 4.5 mg of acetic acid (meaning 0.8% molar amount with respect to the molar amount of idarubicin hydrochloride) were added. The suspension was slurried for two hours, then filtered, frozen and lyophilized.
Doxorubicin hydrochloride (5.0 g) was dissolved in water (200 ml) and the pH corrected to 4.6-4.8 with IN hydrochloric acid at room temperature. Then 80 microlitres of AMBERLITE® IRA-67 (1.6M) acetate (meaning 1.5% molar amount with respect to the molar amount of doxorubicin hydrochloride) was added. The solution was then filtered, frozen and lyophilized.
Epirubicin hydrochloride (1550 mg) was dissolved in water (100 ml) and the pH corrected to 3.2-3.8 with hydrochloric acid at room temperature. The solution was warmed to 60° C.-65° C. for 1 hour and then the solution was cooled to 50-60° C. At the same time, the pH was corrected to 4.5-5.0 with AMBERLITE® IRA-67 free base. Then the solution was quickly filtered, frozen, and lyophilized.

[3] = Example 16: solution to load into lyophilizer, no additional chemicals
[4] = Example 26: solution + 1.5% mol of both NH4OAc/AcOH to load into lyophilizer
[5] = Example 27: solution decolorized with charcoal + 1.5% mol of both NH4OAc/AcOH to load into lyophilizer
[6] = Example 28: solution + 0.65% mol of both NH4OAc/AcOH to load into lyophilizer
[7] = Example 29: lyophilized product obtained (NH4HCO3 + CO2)
[8] = Example 29: solution + 0.1% w/w of NH4HCO3 and gaseous CO2 to saturation, to load into lyophilizer
[9] = Example 30: lyophilized product obtained (NaHCO3 + CO2)
[10] = Example 30: solution + 0.1% w/w of NaHCO3 and gaseous CO2 to saturation, to load into lyophilizer
[11] = Example 31: solution + 1.0% mol of IRA-67 acetate and 0.8% mol of acetic acid, slurried 2 hr, filtered, loaded into lyophilizer

**Q.** Which “% aglycone” value ([1]; Example 16: lyophilized product obtained, not stabilized) does the source give for `CC(=O)[C@]1(O)Cc2c(O)c3c(c(O)c2[C@@H](O[C@H]2C[C@@H](N)[C@H](O)C(C)O2)C1)C(=O)c1ccccc1C3=O.Cl` (some centres unmarked) [Idarubicin HCl, Idarubicin hydrochloride] here?
**A.** The value was 0.29%.

**Q.** And the “% aglycone” value [1, 3]?
**A.** Its value is 0.14%.

**Q.** What about the “pH of the solution as 1% w/v” value [1, 3] of the same compound?
**A.** The value was 5.36.

**Q.** What about the “pH of the solution diluted to 0.5% w/v” value [1, 3] of the same compound?
**A.** The value was 6.32.

**Q.** And the “% aglycone” value ([1]; Example 26: lyophilized product obtained (1.5% mol of both NH4OAc/AcOH))?
**A.** Its value is 0.16%.

**Q.** What about the “% aglycone” value [1, 4] of the same compound?
**A.** The value was 0.14%.

**Q.** And the “pH of the solution as 1% w/v” value [1, 4]?
**A.** Its value is 5.14.

**Q.** What about the “pH of the solution diluted to 0.5% w/v” value [1, 4] of the same compound?
**A.** The value was 5.26.

**Q.** What about the “% aglycone” value ([1]; Example 27: lyophilized product obtained (charcoal + 1.5% mol of both NH4OAc/AcOH)) of the same compound?
**A.** The value was 0.04%.

**Q.** And the “% aglycone” value [1, 5]?
**A.** Its value is 0.03%.

**Q.** What about the “pH of the solution as 1% w/v” value [1, 5] of the same compound?
**A.** Its value is 5.85.

**Q.** What about the “pH of the solution diluted to 0.5% w/v” value [1, 5] of the same compound?
**A.** The value was 6.05.

**Q.** And the “% aglycone” value ([1]; Example 28: lyophilized product obtained (0.65% mol of both NH4OAc/AcOH))?
**A.** Its value is 0.19%.

**Q.** And the “% aglycone” value [1, 6]?
**A.** The value was 0.15%.

**Q.** What about the “pH of the solution diluted to 0.5% w/v” value [1, 6] of the same compound?
**A.** Its value is 5.72.

**Q.** What about the “% aglycone” value [1, 7] of the same compound?
**A.** Its value is 0.16%.

**Q.** What about the “% bis-anhydro” value [1, 7] of the same compound?
**A.** Its value is 0.05%.

**Q.** What about the “% aglycone” value [1, 8] of the same compound?
**A.** The value was 0.15%.

**Q.** What about the “% bis-anhydro” value [1, 8] of the same compound?
**A.** The value was 0.06%.

**Q.** And the “pH of the solution diluted to 0.5% w/v” value [1, 8]?
**A.** The value was 5.73.

**Q.** And the “% aglycone” value [1, 9]?
**A.** The value was 0.16%.

**Q.** What about the “% bis-anhydro” value [1, 9] of the same compound?
**A.** The value was 0.05%.

**Q.** And the “% aglycone” value [1, 10]?
**A.** Its value is 0.15%.

**Q.** What about the “% bis-anhydro” value [1, 10] of the same compound?
**A.** The value was 0.05%.

**Q.** And the “pH of the solution diluted to 0.5% w/v” value [1, 10]?
**A.** Its value is 6.14.

**Q.** And the “% aglycone” value ([1]; Example 31: lyophilized product obtained (IRA-67 acetate + acetic acid))?
**A.** Its value is 0.18%.

**Q.** And the “% aglycone” value [1, 11]?
**A.** The value was 0.15%.

**Q.** What about the “pH of the solution after dilution to 0.5% w/v” value [1, 11] of the same compound?
**A.** Its value is 5.82.

**Q.** What about the “% aglycone” value ([1]; starting solid idarubicin HCl containing a trace amount of HCl) of the same compound?
**A.** Its value is 0.14%.

**Q.** What about the “aglycone contained in lyophilized product” value (from here on “aglycone contained”) ([2]; Example 38: acetic acid and ammonium acetate, both 1.5% molar) of the same compound?
**A.** Its value is 0.12%.

**Q.** And the “aglycone contained” value ([2]; Example 39: acetic acid and ammonium acetate, both 1.5% molar, charcoal, filtered)?
**A.** Its value is 0.02%.

**Q.** What about the “aglycone contained” value ([2]; Example 42: AMBERLITE IRA-67 acetate 1.0% molar and acetic acid 0.8% molar, slurried two hours, filtered) of the same compound?
**A.** The value was 0.09%.
